Test [1] deals with Neisseria meningitidis isolates. In words: Minimum inhibitory concentration, macro broth dilution, Neisseria meningitidis isolates (Test 2). The class given is cell-based. The settings on record: 24 h. As to the method:
Compounds were tested against five isolates of Neisseria meningitidis. […] The test procedure used was the macro broth dilutuon method in duplicate outlined by J. C. Sherris on pages 414-415. The test compounds and controls were prepared as in Test 1. Ampicillin and penicillin standards were initially diluted as described by J. C. Sherris on pages 411-412 followed by dilution with Mueller-Hinton broth.
A general note: Dilution methods test growth across graded concentrations, often in twofold steps.

Test [2] concerns Staphylococcus aureus isolates. In words: Minimum inhibitory concentration, macro broth dilution, Staphylococcus aureus isolates (Test 1). The settings on record: for MIC: Staphylococcus aureus, 24 h, read-out: Minimum Inhibitory Concentration. The class given is cell-based. The method, then:
Compounds were tested against five isolates of Staphylococcus aureus. The bacteria used were isolated from patients at the Walter Reed Army Medical Center, Washington, D.C. […] Each compound was dissolved in Dimethyl Sulfoxide (DMSO) (12.8 mg/ml) and then diluted with Mueller-Hinton broth to obtain the desired dilutions. Tubes containing the hightest quantities of DMSO with no compound present were run as controls.

In test [3] the test system is Mycobacterium smegmatis strains. In words: Minimum inhibitory concentration, Mycobacterium smegmatis strains (Test 4). The class given is cell-based. The settings on record: Mycolicibacterium smegmatis. The method, then: Compounds were tested against three strains of Mycobacterium smegmatis. The test procedure used was as mentioned by N. E. Morrison [Int. J. of Leprosy 39:34-43 (1971)]. The strain numbers refer to Mycobacterium smegmatis ATCC 607 (I), a DDS-resistant daughter strain (II), and a Rifampin-resistant daughter strain (III), respectively.

The test system of test [4] is Neisseria gonorrhoeae isolates. In words: Minimum inhibitory concentration, agar dilution, Neisseria gonorrhoeae isolates (Test 3). The note with it: 24 h, read-out: Minimum Inhibitory Concentration. In general terms: Agar dilution tests growth on a series of plates holding different concentrations.
Procedure: Compounds were tested against 35 Neisseria gonorrhoeae isolates. The bacteria used were provided by the Department of Bacterial Diseases of the Walter Reed Amry Institute of Research. The test procedure used was the agar dilution method in duplicate as outlined by J. S. Sherris on pages 411-412. GC Medium (Difco) with a 2% defined supplement added as described by D. S. Kellogg et al [J. Bact. […] The compounds were dissolved in DMSO (1.0 mg/ml), diluted with GC broth (GC Medium without agar) to the appropriate concentration, and added to the GC Medium at 55°-56° C. The latter was then poured and allowed to solidify. A penicillin standard was also prepared with initial dilutions as described by J. C. Sherris followed by dilutions with GC broth and addition to the GC Medium at 55°-56° C. The inoculum was 1:200 CG broth dilution of a suspension of colony isolates after the suspension was adjusted visually to the turbidity standard described by J. M. Matsen and A. L. Barr on page 422 in "Manual of Clinical Microbiology," 2nd Ed., E. Lennette, E. H. Spaulding, and J. P. Truant, Ed. […] The plates were inoculated with a replicator and incubated at 37° C. under 5-10% carbon dioxide.
The test system of test [5] is Plasmodium berghei KBG 173. In words: In vivo antimalarial activity against Plasmodium berghei in mice (Test 5). Also noted: key: C: Mice surviving 60 days are considered cured; active: Activity is defined as a 100% increase in the mean survival time of the treated mice compared to the control group. The note with it: C (n/5) = cured of five. As to the method:
Compounds were tested against Plasmodium berghei KBG 173 malaria in mice following the procedure described by T. S. Osdene, P. B. Russell, and L. Rane [J. Med. Chem. 10:431-434 (1967)]. Five mice were tested at each dosage level. Mice surviving 60 days are considered cured. Toxicity is defined as a decrease in the mean survival time of the treated mice as compared to the control group. Activity is defined as a 100% increase in the mean survival time of the treated mice compared to the control group.

[6] abbreviates: Neisseria meningitidis isolate 7957, read-out: Minimum Inhibitory Concentration.
Where [7] appears, read: Neisseria meningitidis isolate 7990, read-out: Minimum Inhibitory Concentration.
Setting [8] is: Neisseria meningitidis isolate 8005, read-out: Minimum Inhibitory Concentration.
The mark [9] stands for this setting: Neisseria meningitidis isolate 8006, read-out: Minimum Inhibitory Concentration.
Where [10] appears, read: Neisseria meningitidis isolate 8011, read-out: Minimum Inhibitory Concentration.
[11] abbreviates: Staphylococcus aureus isolate V, 24 hours.
The mark [12] stands for this setting: Staphylococcus aureus isolate II, 24 hours.
Setting [13] is: Staphylococcus aureus isolate III, 24 hours.
[14] abbreviates: Staphylococcus aureus isolate IV, 24 hours.
[15] abbreviates: 24 h, DDS-resistant daughter strain (II).
The mark [16] stands for this setting: 24 h, Rifampin-resistant daughter strain (III).
[17] abbreviates: ATCC607, 24 h, Mycobacterium smegmatis ATCC 607 (I).
Setting [18] is: read-out: Minimum Inhibitory Concentration, Neisseria meningitidis isolate 7957.
The mark [19] stands for this setting: read-out: Minimum Inhibitory Concentration, Neisseria meningitidis isolate 7990.
Where [20] appears, read: read-out: Minimum Inhibitory Concentration, Neisseria meningitidis isolate 8006.
The mark [21] stands for this setting: read-out: Minimum Inhibitory Concentration, Neisseria meningitidis isolate 8011.

Values after ≈ are worked out from the molar mass of the structure shown. Like-named read-outs stand apart in the source and are kept apart here.

`CC1(C)S[C@@H]2[C@H](NC(=O)[C@H](N)c3ccccc3)C(=O)N2[C@H]1C(=O)O` [Ampicillin, reference compound]: the MIC in test [1] (setting [6]) is 0.008 µg/mL (≈ 0.0229 µM); in test [1] (setting [7]) it was 0.008 µg/mL (≈ 0.0229 µM); in test [1] (setting [8]) it was 0.008 µg/mL (≈ 0.0229 µM); in test [1] (setting [9]), 0.016 µg/mL (≈ 0.0458 µM); in test [1] (setting [10]), 0.016 µg/mL (≈ 0.0458 µM).
For `CC(=NNC(=S)N1CCCCCC1)c1ccc2ccccc2n1` [Compound 3F, 1-Azacycloheptane-1-thiocarboxylic Acid 2-[1-(2-quinolyl)ethylidene]-hydrazide], the “Minimum Inhibitory Concentration” value in test [2] (setting [11]) was 16 µg/mL. Moreover, the MIC in test [2] (setting [12]) turned out to be 16 µg/mL (≈ 49 µM); in test [2] (setting [13]) it was 16 µg/mL (≈ 49 µM); in test [2] (setting [14]), 16 µg/mL (≈ 49 µM); in test [3] (setting [15]), 15 µg/mL (≈ 45.9 µM); in test [3] (setting [16]) it was 10 µg/mL (≈ 30.6 µM); in test [3] (setting [17]), 2.5 µg/mL (≈ 7.66 µM). Further, the MIC was < 0.062 µg/mL in test [1] (setting [6]); 0.125 µg/mL (≈ 0.383 µM) in test [1] (setting [7]); 0.25 µg/mL (≈ 0.766 µM) in test [1] (setting [8]); 0.25 µg/mL (≈ 0.766 µM) in test [1] (setting [9]); 0.25 µg/mL (≈ 0.766 µM) in test [1] (setting [10]); 0.25 to 0.5 µg/mL (≈ 0.766 to 1.53 µM) in test [4].
`CC(=NNC(=S)N1CC2CCC(CC2)C1)c1ccc2ccccc2n1` [Compound 3G, 3-Azabicyclo[3.2.2]none-3-thiocarboxylic acid 2-[1-(2-quinolyl)ethylidene]hydrazide]: the “Minimum Inhibitory Concentration” value in test [2] (setting [12]), in test [2] (setting [13]), in test [2] (setting [14]) and in test [2] (setting [11]) was 16 µg/mL throughout. Moreover, the MIC was 16 µg/mL (≈ 45.4 µM) in test [2]; 15 µg/mL (≈ 42.6 µM) in test [3] (setting [15]); 10 µg/mL (≈ 28.4 µM) in test [3] (setting [16]); 4 µg/mL (≈ 11.3 µM) in test [3] (setting [17]); 0.125 µg/mL (≈ 0.355 µM) in test [1] (setting [18]); 1 µg/mL (≈ 2.84 µM) in test [1] (setting [19]). Also, the MIC is 1 µg/mL (≈ 2.84 µM) in test [1] (read-out: Minimum Inhibitory Concentration, Neisseria meningitidis isolate 8005); 0.5 µg/mL (≈ 1.42 µM) in test [1] (setting [20]); 0.5 µg/mL (≈ 1.42 µM) in test [1] (setting [21]); 0.5 to 1 µg/mL (≈ 1.42 to 2.84 µM) in test [4]. In test [5] (160 mg/kg), the “In vivo Antimalarial Activity” value is “active”.
For `CC(=NNC(=S)N1CCN(c2ccccn2)CC1)c1ccc2ccccc2n1` [Compound 3H], in test [2] (setting [11]), the “Minimum Inhibitory Concentration” value was 16 µg/mL. Moreover, the MIC in test [2] (setting [12]) turned out to be 16 µg/mL (≈ 41 µM); in test [2] (setting [13]), 16 µg/mL (≈ 41 µM); in test [2] (setting [14]), 16 µg/mL (≈ 41 µM); in test [3] (setting [15]), 10 µg/mL (≈ 25.6 µM); in test [3] (setting [16]) it was 5 µg/mL (≈ 12.8 µM); in test [3] (setting [17]), 2.5 µg/mL (≈ 6.4 µM). For the same molecule, the MIC is > 1 µg/mL in test [1] (setting [6]); > 1 µg/mL in test [1] (setting [7]); > 1 µg/mL in test [1] (setting [8]); > 1 µg/mL in test [1] (setting [9]); > 1 µg/mL in test [1] (setting [10]); 0.125 to 0.5 µg/mL (≈ 0.32 to 1.28 µM) in test [4].
`CC(=NNC(=S)N1CCCC1)c1ccc2ccccc2n1` [Compound 3I, Pyrrolidine-1-thiocarboxylic acid 2-[1-(2-quinolyl)ethylidene]hydrazide]: the MIC was ≤ 0.25 µg/mL in test [2] (Staphylococcus aureus isolate I, 24 hours); ≤ 0.25 µg/mL in test [2] (setting [14]); ≤ 0.25 µg/mL in test [2] (setting [11]); 3 µg/mL (≈ 10.1 µM) in test [3] (setting [15]); 1.5 µg/mL (≈ 5.03 µM) in test [3] (setting [16]); 0.6 µg/mL (≈ 2.01 µM) in test [3] (setting [17]). For the same molecule, the MIC in test [1] (setting [6]) is 0.062 µg/mL (≈ 0.208 µM); in test [1] (setting [7]) it was 0.125 µg/mL (≈ 0.419 µM); in test [1] (setting [8]), 0.125 µg/mL (≈ 0.419 µM); in test [1] (setting [9]), 0.125 µg/mL (≈ 0.419 µM); in test [1] (setting [10]), 0.125 µg/mL (≈ 0.419 µM); in test [4] it was 0.125 to 0.25 µg/mL (≈ 0.419 to 0.838 µM).
For the molecule `CCCNC(=S)NN=C(C)c1ccc2ccccc2n1` [Compound 3J, I-Propylaminothiocarboxylic acid 2-[1-(2-quinolyl)ethylidene]hydrazide], the MIC in test [3] (setting [15]) is 4 µg/mL (≈ 14 µM); in test [3] (setting [16]), 2 µg/mL (≈ 6.98 µM); in test [3] (setting [17]), 1 µg/mL (≈ 3.49 µM).
For `CC(=NNC(=S)N(CC(C)C)CC(C)C)c1ccc2ccccc2n1` [Compound 3K, Diisobutylaminothiocarboxylic acid 2-[1-(2-quinolyl)ethylidene]hydrazide], in test [2] (setting [11]), the “Minimum Inhibitory Concentration” value turned out to be 16 µg/mL. Also, the MIC in test [2] (setting [12]) was 16 µg/mL (≈ 44.9 µM); in test [2] (setting [13]), 16 µg/mL (≈ 44.9 µM); in test [2] (setting [14]) it was 16 µg/mL (≈ 44.9 µM); in test [3] (setting [15]), > 50 µg/mL; in test [3] (setting [16]) it was > 50 µg/mL; in test [3] (setting [17]) it was 10 µg/mL (≈ 28 µM). Also, the MIC in test [1] (setting [6]) was 0.125 µg/mL (≈ 0.351 µM); in test [1] (setting [7]) it was 0.5 µg/mL (≈ 1.4 µM); in test [1] (setting [8]), 0.5 µg/mL (≈ 1.4 µM); in test [1] (setting [9]) it was 1 µg/mL (≈ 2.8 µM); in test [1] (setting [10]) it was 0.5 µg/mL (≈ 1.4 µM); in test [4], > 1 µg/mL. Further, the “In vivo Antimalarial Activity” value in test [5] (320 mg/kg) and in test [5] (640 mg/kg) was “active” each time.
On to `Nc1ccc(S(=O)(=O)c2ccc(N)cc2)cc1` [DDS, reference compound], for which the MIC in test [3] (setting [15]) is 400 µg/mL (≈ 1610 µM); in test [3] (setting [17]), 2 µg/mL (≈ 8.05 µM).
`CC1(C)S[C@@H]2[C@H](NC(=O)Cc3ccccc3)C(=O)N2[C@H]1C(=O)O` [Penicillin, reference compound]: the MIC is 0.031 µg/mL (≈ 0.0927 µM) in test [1] (setting [18]); 0.031 µg/mL (≈ 0.0927 µM) in test [1] (setting [19]); 0.031 µg/mL (≈ 0.0927 µM) in test [1] (setting [20]); 0.031 µg/mL (≈ 0.0927 µM) in test [1] (setting [21]); 0.062 to 16 µg/mL (≈ 0.185 to 47.8 µM) in test [4].
As for `CO[C@H]1/C=C/O[C@@]2(C)Oc3c(C)c(O)c4c(O)c(c(/C=N/N5CCN(C)CC5)c(O)c4c3C2=O)NC(=O)/C(C)=C\C=C\[C@H](C)[C@H](O)[C@@H](C)[C@@H](O)[C@@H](C)[C@H](OC(C)=O)[C@@H]1C` [Rifampin, reference compound], the values for the MIC in test [3] (setting [16]) and in test [3] (setting [17]) were 250 µg/mL (≈ 304 µM) and 1 µg/mL (≈ 1.22 µM), respectively.
